Laboratory results reported in patent US11442059B2, “Method for treating a chronic itch condition by administering small molecule MrgprX4 antagonists” (The Johns Hopkins University, priority 2017, dated 2022).

Key:
Type in all cases: cell-based
Mrgpra1-GFP = target: T1, Mrgpra1-GFP (Mus musculus, UniProt Q91WW5); test: Receptor internalization assay, Mrgpra1-GFP HEK293 cells; settings: 37° C.
T1 construct: expressed in transfected cells
T1 sequence (Q91WW5 1-304): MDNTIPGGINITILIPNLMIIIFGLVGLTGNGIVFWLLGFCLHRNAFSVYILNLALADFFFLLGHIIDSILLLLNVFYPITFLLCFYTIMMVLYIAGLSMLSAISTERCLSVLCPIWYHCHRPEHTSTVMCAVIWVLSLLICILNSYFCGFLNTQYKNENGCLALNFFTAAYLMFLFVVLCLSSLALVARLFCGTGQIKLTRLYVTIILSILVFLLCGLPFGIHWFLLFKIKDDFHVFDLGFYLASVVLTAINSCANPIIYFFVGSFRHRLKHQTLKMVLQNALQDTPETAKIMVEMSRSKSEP
Protocol: (§1) To label the drug with red-fluorescent dye, […] of LTG was dissolved in 50 μl dimethyformamide (DMF) first, and further diluted with 450 μl reaction buffer (0.1M sodium bicarbonate buffer, pH9.0) to obtain LTG at a concentration of 7.8 mM. Then, 50 μl of Texas-red-conjugated sulfonyl chloride (Thermo Fisher Scientific, T1905) dissolved in DMF at 10 mg ml−1 was slowly added into LTG solution. The reaction was incubated at 4° C. for 1 hour with continuous stirring. The mixture was then diluted into cell culture medium for further use. LTG labeled with Texas Red dye can create bright red-fluorescence with excitation/emission maxima ˜595/615 nm. HEK293 cells stably expressing Mrgpra1-GFP, Mrgprc11-GFP or MRGPRX4-GFP fusion protein were grown in DMEM with 10% FBS. After 4-6 hours of serum starvation, cells were treated with either medium, dye alone, unlabeled LTG or Texas-Red-labeled LTG at 37° C. for 15 or 60 min. Cells were washed with PBS and fixed with 4% paraformaldehyde in PBS. The subcellular localization of Mrgpr-GFP or drug was visualized under a confocal fluorescence microscope with a 400× magnification (Zeiss LSM 700).

Mrgprc11-GFP = target: T2, Mrgprc11-GFP (Mus musculus, UniProt Q8CIP3); test: Receptor internalization assay, Mrgprc11-GFP HEK293 cells; settings: data not shown
T2 construct: expressed in transfected cells
T2 sequence (Q8CIP3 1-322): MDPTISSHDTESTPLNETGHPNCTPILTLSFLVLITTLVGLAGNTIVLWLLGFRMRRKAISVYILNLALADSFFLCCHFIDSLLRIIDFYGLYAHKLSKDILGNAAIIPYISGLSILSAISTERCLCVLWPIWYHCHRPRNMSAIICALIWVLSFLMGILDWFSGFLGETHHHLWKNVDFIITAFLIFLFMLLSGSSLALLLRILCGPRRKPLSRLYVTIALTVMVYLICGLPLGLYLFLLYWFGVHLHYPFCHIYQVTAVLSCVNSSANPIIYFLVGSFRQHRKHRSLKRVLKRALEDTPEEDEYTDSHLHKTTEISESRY
Protocol: as §1

MRGPRX4 = MRGPRX4 (Homo sapiens, UniProt Q96LA9); test: Ca2+ imaging / EC50 determination in HEK293 cells expressing MRGPRX4; set-up: expressed in transfected cells
MRGPRX4, sequence (Q96LA9 whole entry): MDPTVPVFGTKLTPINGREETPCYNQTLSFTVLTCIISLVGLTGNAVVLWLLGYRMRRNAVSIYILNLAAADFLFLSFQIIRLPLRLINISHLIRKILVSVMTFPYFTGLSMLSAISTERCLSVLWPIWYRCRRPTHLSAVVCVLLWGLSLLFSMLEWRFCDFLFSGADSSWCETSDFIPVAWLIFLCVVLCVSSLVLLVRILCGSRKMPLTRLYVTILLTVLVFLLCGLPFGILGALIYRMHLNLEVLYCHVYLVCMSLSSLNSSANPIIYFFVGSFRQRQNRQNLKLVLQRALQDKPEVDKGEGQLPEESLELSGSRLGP
Protocol: Lamotrigine (LTG), allopurinol, carbamazepine and oxcarbazepine (all from Sigma) were prepared fresh on the day of the experiment. These drugs were dissolved into dimethyl sulfoxide (DMSO) first, and then were diluted at least 10000× into calcium imaging buffer before use. The final concentrations of drugs for each experiment were indicated in the corresponding figure legend.
In initial experiments, HEK293 cells were plated on 100 μg/ml poly-D-lysine coated glass cover slips, and transiently transfected with vector containing Mrgprs gene, after 24-48 hours of culture, cells were loaded with Fura 2-acetomethoxy ester calcium indicator (0.5 μM, Molecular Probes) along with pluronic F-127 dispersing agent (0.1%, Molecular Probes) for 30 minutes in the dark at 37° C., then washed with calcium imaging buffer (CIB; NaCl 125 mM, KCl 3 mM, CaCl2 2.5 mM, MgCl2 0.6 mM, HEPES 10 mM, glucose 20 mM, NaHCO3 1.2 mM, sucrose 20 mM, brought to pH 7.4 with NaOH). Drugs were added to Fura 2-loaded cells and intracellular free calcium was measured using 340 nm and 380 nm excitation wavelengths with emission measured at 520 nm with a microscope based imaging system (Nikon Eclipse TE200). Changes in emission fluorescence ratios at 340/380 nm excitation were continuously monitored at 1 second intervals. Later, experiments were performed using Mrgpra1-GFP, Mrgprc11-GFP and MRGPRX4-GFP stable cell lines to confirm the findings obtained from the transiently expressing cells.
Mrgpra1 or both wild-type and mutant MRGPRX4 stably expressed HEK cells were plated overnight in 100 μl culture media on 96-well plates. […] After 1 hour of incubation at 37° C., cells were allowed to recover for 10 minutes in the dark at room temperature prior to performing intracellular calcium mobilization assay in a FLEXSTATION® multi-mode plate reader (Molecular Devices). […] Responses were determined by subtracting the minimum signal (at the basal level before adding the drug) from the maximum signal (obtained after stimulating with the drug). […]

Structure (SMILES): Nc1nnc(-c2cccc(Cl)c2Cl)c(N)n1 [LTG, Lamotrigine]
- internalization of Mrgpra1-GFP (Mrgpra1-GFP): can induce the internalization
- internalization of Mrgprc11-GFP (Mrgprc11-GFP): did not induce the internalization
- EC50 (MRGPRX4; HEK293 cells, Ca2+ assay): ~200 µM
- activation of human MRGPRX4 (Ca2+ imaging) (MRGPRX4; Mrgprs individually expressed in HEK293 cells): specifically activated
